Tested on: RSV A2 strain
Assay: In vitro CPE (CytoPathic Effect) inhibition effect evaluation test, RSV type A
Assay type: cell-based
Details: human respiratory syncytial virus, HEp-2
Summary of the method: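 HEp-2 cells (2.4×10^5 cells/mL, 2% FBS E-MEM) were infected with RSV alongside 3-fold compound dilutions and incubated at 37 °C, 4 days for A2 and 5 days for B Wash/18537. Viable cells quantified by CellTiter-Glo 2.0 luminescence; EC50 by nonlinear regression as 50% CPE inhibition.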

SMILES | EC50 [µM]
O=C(NC1(c2nn[nH]n2)CCCCC1)c1cnc(N2CC3(CCOCC3)c3cc(OC4CCN(c5ncccn5)CC4)ccc32)nc1C(F)(F)F [Compound I-98] | < 0.01

Same assay, conditions: human respiratory syncytial virus; inhibitory effect against RSV type A (RSV A2 strain), HEp-2 cells, CPE inhibition; read-out: EC50

EC50 [µM] | SMILES
0.01 to 0.1 | COc1ccc2c(c1)c(-c1ncc(C(=O)NC3(C(=O)O)C4CC5CC(C4)CC3C5)c(C(F)(F)F)n1)cn2C1CCC(F)(F)CC1 (stereo not drawn) [Compound I-454]
0.01 to 0.1 | O=C(NC1(C(=O)O)CCCCC1)c1cnc(N2CCc3cc(OCC4CN(CC(F)(F)F)CCO4)ccc32)nc1C(F)(F)F (racemic) [Compound I-58]
< 0.01 | O=C(NC1(C(=O)O)C2CC3CC(C2)CC1C3)c1cnc(-c2cn(C3CCC(F)(F)CC3)c3cc(OCCN4CC(F)(F)C4)ccc23)nc1C(F)(F)F (stereo not drawn) [Compound I-426]
< 0.01 | O=C(NC1(C(=O)O)C2CC3CC(C2)CC1C3)c1ccc(-c2cn(CC3CC(F)(F)C3)c3cc(OC4CCN(c5ncccn5)CC4)ccc23)nc1C(F)(F)F (stereo not drawn) [Compound I-264]
< 0.01 | O=C(NC1(C(=O)O)C2CC3CC(C2)CC1C3)c1cnc(N2CC3(CCOCC3)c3cc(OC4CN(C5COC5)C4)ccc32)nc1C(F)(F)F (stereo not drawn) [Compound I-226]
< 0.01 | Cc1ccc2c(c1)C1(CCN(c3ncccn3)CC1)CN2c1ncc(C(=O)NC2(C(=O)O)C3CC4CC(C3)CC2C4)c(C(F)(F)F)n1 (stereo not drawn) [Compound I-139]
0.01 to 0.1 | COc1ccc2c(c1)CCN2c1ccc(C(=O)NC2(C(=O)O)C3CC4CC(C3)CC2C4)c(C(F)(F)F)c1 (stereo not drawn) [Compound I-124]
0.01 to 0.1 | COc1cncc(COc2ccc3c(c2)CCN3c2ncc(C(=O)NC3(C(=O)O)CCCCC3)c(C(F)(F)F)n2)c1 [Compound I-30]
< 0.01 | CC(C)(F)c1nc(N2CCc3cc(OCCC4CCOCC4)ccc32)ncc1C(=O)NC1(C(=O)O)C2CC3CC(C2)CC1C3 (stereo not drawn) [Compound I-179]
0.01 to 0.1 | CCNC(=O)N1CCC(Oc2ccc3c(c2)CCN3c2ncc(C(=O)NC3(C(=O)O)CCCCC3)c(C(F)(F)F)n2)CC1 [Compound I-112]
0.1 to 5 | O=C(NC1(C(=O)O)CCCCC1)c1cnc(N2CC3(CC3)c3cc(Br)ccc32)nc1C(F)(F)F [Compound I-10]
< 0.01 | O=C(NC1(C(=O)O)C2CC3CC(C2)CC1C3)c1cnc(N2CC3(CCOCC3)c3cc(CC4CCN(c5ncccn5)CC4)ccc32)nc1C(F)(F)F (stereo not drawn) [Compound I-119]
< 0.01 | O=C(NC1(C(=O)O)C2CC3CC(C2)CC1C3)c1cnc(-c2cn(C3CCC(F)(F)CC3)c3cc(OC4CCN(c5ncccc5F)CC4)ccc23)nc1C(F)(F)F (stereo not drawn) [Compound I-241]
< 0.01 | O=C(NC1(C(=O)O)C2CC3CC(C2)CC1C3)c1cnc(N2CC3(CCOCC3)c3cc(F)ccc32)nc1C(F)(F)F (stereo not drawn) [Compound I-284]
0.01 to 0.1 | Cn1cc(-c2ncc(C(=O)NC3(C(=O)O)CCCCC3)c(C(F)(F)F)n2)c2ccc(OCCC3CCOCC3)cc21 [Compound I-117]
< 0.01 | O=C(NC1(C(=O)O)C2CC3CC(C2)CC1C3)c1cnc(-c2cn(C3CCC(F)(F)CC3)c3cc(OCCNc4ncccn4)ccc23)nc1C(F)(F)F (stereo not drawn) [Compound I-372]

EC50 [µM] | SMILES
0.01 to 0.1 | COc1ccnc(N2CCC(Oc3ccc4c(c3)CCN4c3ncc(C(=O)NC4(C(=O)O)CCCCC4)c(C(F)(F)F)n3)CC2)c1 [Compound I-79]
0.01 to 0.1 | NC(=O)C1CC1c1ccc2c(c1)CCN2c1ncc(C(=O)NC2(C(=O)O)C3CC4CC(C3)CC2C4)c(C(F)(F)F)n1 (racemic) [Compound I-215]
< 0.01 | O=C(NC1(C(=O)O)C2CC3CC(C2)CC1C3)c1cnc(N2CC3(CCOCC3)c3cc(Nc4ccccn4)ccc32)nc1C(F)(F)F (stereo not drawn) [Compound I-280]
0.01 to 0.1 | O=C(NC1(C(=O)O)C2CC3CC(C2)CC1C3)c1cnc(N2CC3(CCCCC3)c3cc(O[C@H]4CC[C@H](ON=C5CCC(F)(F)CC5)CC4)ccc32)nc1C(F)(F)F (stereo partly drawn) [Compound I-456]
< 0.01 | CN(C)C(=O)C1(NC(=O)c2cnc(N3CC4(CCOCC4)c4cc(OC5CCN(c6ncccn6)CC5)ccc43)nc2C(F)(F)F)C2CC3CC(C2)CC1C3 (stereo not drawn) [Compound I-174]
< 0.01 | O=C(NC1(C(=O)O)C2CC3CC(C2)CC1C3)c1cnc(-c2cn(CCc3ccccc3)c3cc(OC4CCN(c5ncc(F)cn5)CC4)ccc23)nc1C(F)(F)F (stereo not drawn) [Compound I-469]
< 0.01 | COc1cccnc1N1CCC(Oc2ccc3c(c2)CCN3c2ncc(C(=O)NC3(C(=O)O)CCCCC3)c(C(F)(F)F)n2)CC1 [Compound I-77]
0.1 to 5 | Cc1ccc2c(c1)C1(CCNCC1)CN2c1ncc(C(=O)NC2(C(N)=O)C3CC4CC(C3)CC2C4)c(C(F)(F)F)n1 (stereo not drawn) [Compound I-172]
< 0.01 | O=C(NC1(C(=O)O)C2CC3CC(C2)CC1C3)c1cnc(-c2cn(C3CCC(F)(F)CC3)c3cc(OC4CCN(c5nccs5)CC4)ccc23)nc1C(F)(F)F (stereo not drawn) [Compound I-236]
< 0.01 | CC(C)(C)C[C@@H](NC(=O)c1cnc(-c2cn(C3CCC(F)(F)CC3)c3cc(OC4CCN(c5ncccn5)CC4)ccc23)nc1C(F)(F)F)C(=O)O [Compound I-302]
< 0.01 | NC(=O)C1(NC(=O)c2cnc(N3CC4(CCOCC4)c4cc(OCCN5CCOCC5)ccc43)nc2C(F)(F)F)C2CC3CC(C2)CC1C3 (stereo not drawn) [Compound I-170]
0.01 to 0.1 | O=C(NC1(C(=O)O)C2CC3CC(C2)CC1C3)c1cnc(N2CC3(CCCCC3)c3cc(O[C@H]4CC[C@@H](ON=C5CCC(F)(F)CC5)CC4)ccc32)nc1C(F)(F)F (stereo partly drawn) [Compound I-457]
< 0.01 | O=C(NC1(C(=O)O)C2CC3CC(C2)CC1C3)c1cnc(N2CC3(CCOCC3)c3cc(OC4CCC(n5cccn5)CC4)ccc32)nc1C(F)(F)F (stereo not drawn) [Compound I-143]
< 0.01 | O=C(NC1(C(=O)O)C2CC3CC(C2)CC1C3)c1cnc(N2CC3(CCOCC3)c3cc(-n4ncc5cccnc54)ccc32)nc1C(F)(F)F (stereo not drawn) [Compound I-471]
< 0.01 | CC1(C)CCC(n2cc(-c3ccc(C(=O)NC4(C(=O)O)C5CC6CC(C5)CC4C6)c(C(F)(F)F)n3)c3ccc(OC4CCN(c5ncccn5)CC4)cc32)CC1 (stereo not drawn) [Compound I-281]
< 0.01 | O=C(NC1(C(=O)O)C2CC3CC(C2)CC1C3)c1cnc(N2CC3(CCCC3)c3cc(O[C@H]4CC[C@H](N5CC(F)(F)C5)CC4)ccc32)nc1C(F)(F)F (stereo partly drawn) [Compound I-462]

Same assay, conditions: inhibitory effect against RSV type A (RSV A2 strain), HEp-2 cells, CPE inhibition; read-out: EC50

EC50 [µM] | SMILES
< 0.01 | O=C(NC1(C(=O)O)C2CC3CC(C2)CC1C3)c1cnc(N2CC3(CCN(c4ncc(F)cn4)C3)c3cc(OC4CCN(c5ncccn5)CC4)ccc32)nc1C(F)(F)F (racemic) [Compound I-361]
< 0.01 | O=C(NC1(C(=O)O)C2CC3CC(C2)CC1C3)c1cnc(N2CC3(CCOCC3)c3cc(Oc4ccccc4)ccc32)nc1C(F)(F)F (stereo not drawn) [Compound I-348]
< 0.01 | O=C(NC1(C(=O)O)C2CC3CC(C2)CC1C3)c1cnc(N2CC3(CC4CCC(C3)O4)c3cc(OC4CCN(c5ncccn5)CC4)ccc32)nc1C(F)(F)F (single isomer, unassigned) [Compound I-300]
< 0.01 | COc1ccccc1-n1cc(-c2ccc(C(=O)NC3(C(=O)O)C4CC5CC(C4)CC3C5)c(C(F)(F)F)n2)c2ccc(OC3CCN(c4ncccn4)CC3)cc21 (stereo not drawn) [Compound I-318]
< 0.01 | O=C(NC1(C(=O)O)C2CC3CC(C2)CC1C3)c1ccc(-c2cn(C3=CCC(F)(F)CC3)c3cc(OC4CCN(c5ncc(F)cn5)CC4)ccc23)nc1C(F)(F)F (stereo not drawn) [Compound I-359]
< 0.01 | O=C(Nc1ccc2c(c1)C1(CCOCC1)CN2c1ncc(C(=O)NC2(C(=O)O)C3CC4CC(C3)CC2C4)c(C(F)(F)F)n1)c1ccccc1 (stereo not drawn) [Compound I-323]

From patent publication US12528790B2, “Amide derivative having antiviral activity” (Shionogi & Co., Ltd., priority 2020, dated 2026)
